Data from PubChem BioAssay AID256 (DTP/NCI, 2004).
Values joined by “and” are separate entries in the source; they are usually repeats but may differ in a detail not shown here. Equal entries are not always repeated. Toxic doses and inconclusive results are not listed. The calls were made as follows: active = survival T/C of 150% or more; inactive = T/C below 125% in these data.

Tested on: CD2F1 mice, L1210 leukemia ip, survival T/C
Experiment: NCI In Vivo Anticancer Drug Screen. Data for tumor model L1210 Leukemia (intraperitoneal) in CD2F1 (CDF1) mice
Conditions: higher = longer survival
How it was run: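 In this screen, transplantable tumors were grown in mice given either the compound or its vehicle. Results were expressed as the treated measurement relative to the control measurement.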

[1] = endpoint: mean survival time, dose: 100.0 mg/kg/injection, schedule: Q01DX001 (ip), vehicle: saline with Tween-80
[2] = endpoint: mean survival time, dose: 200.0 mg/kg/injection, schedule: Q01DX001 (ip), vehicle: saline with Tween-80
[3] = endpoint: mean survival time, dose: 400.0 mg/kg/injection, schedule: Q01DX001 (ip), vehicle: saline with Tween-80
[4] = endpoint: mean survival time, dose: 100.0 mg/kg/injection, schedule: Q04DX003 (ip), vehicle: saline with Tween-80
[5] = endpoint: mean survival time, dose: 200.0 mg/kg/injection, schedule: Q04DX003 (ip), vehicle: saline with Tween-80
[6] = endpoint: mean survival time, dose: 400.0 mg/kg/injection, schedule: Q04DX003 (ip), vehicle: saline with Tween-80
[7] = endpoint: mean survival time, dose: 100.0 mg/kg/injection, schedule: Q01DX009 (ip), vehicle: saline with Tween-80
[8] = endpoint: mean survival time, dose: 200.0 mg/kg/injection, schedule: Q01DX009 (ip), vehicle: saline with Tween-80
[9] = endpoint: mean survival time, dose: 400.0 mg/kg/injection, schedule: Q01DX009 (ip), vehicle: saline with Tween-80
[10] = endpoint: mean survival time, dose: 100.0 mg/kg/injection, schedule: Q01DX009 (ip), vehicle: Klucel (hydroxypropylcellulose) (HPC)
[11] = endpoint: mean survival time, dose: 100.0 mg/kg/injection, schedule: Q04DX003 (ip), vehicle: saline
[12] = endpoint: mean survival time, dose: 200.0 mg/kg/injection, schedule: Q01DX009 (ip), vehicle: Klucel (hydroxypropylcellulose) (HPC)
[13] = endpoint: mean survival time, dose: 200.0 mg/kg/injection, schedule: Q04DX003 (ip), vehicle: saline
[14] = endpoint: mean survival time, dose: 400.0 mg/kg/injection, schedule: Q04DX003 (ip), vehicle: saline

Measured: T/C

COc1ccc(CCF)cc1
inactive: [1] 110 % of control | [2] 100 % of control | [3] 114 % of control

OCC(O)C(O)C(O)C(O)CO (configuration not stated) (tested in a mixture with another compound)
inactive: endpoint: mean survival time, dose: 37.5 mg/kg/injection, schedule: Q01DX001 (ip), vehicle: saline 94 % of control | endpoint: mean survival time, dose: 75.0 mg/kg/injection, schedule: Q01DX001 (ip), vehicle: saline 96 % of control | [1] 88 % of control and 104 % of control | [4] 93 % of control and 90 % of control | endpoint: mean survival time, dose: 150.0 mg/kg/injection, schedule: Q01DX001 (ip), vehicle: saline 95 % of control | [2] 88 % of control and 98 % of control | [5] 95 % of control and 90 % of control | [3] 92 % of control and 93 % of control | [6] 97 % of control and 92 % of control

COc1ccc(Cc2nnc(Cc3ccc(OC)c(OC)c3)nn2)cc1OC
inactive: [4] 101 % of control | [5] 93 % of control

Cc1ccc(-c2c(O)c(Br)c(-c3ccc(C)cc3C)c(O)c2Br)c(C)c1
inactive: [7] 97 % of control | [4] 93 % of control | [8] 97 % of control | [5] 90 % of control | [9] 94 % of control | [6] 92 % of control

CCCCCCCCCCCCCCCCN(C)c1ccc(C(=O)OC)cc1[N+](=O)[O-]
inactive: [10] 97 % of control | [11] 98 % of control | [12] 101 % of control | [13] 91 % of control | endpoint: mean survival time, dose: 400.0 mg/kg/injection, schedule: Q01DX009 (ip), vehicle: Klucel (hydroxypropylcellulose) (HPC) 97 % of control | [14] 95 % of control

CC1=NC2(CCCCC2)C[N+]1(Cc1ccccc1)Cc1ccccc1
inactive: endpoint: mean survival time, dose: 25.0 mg/kg/injection, schedule: Q01DX009 (ip), vehicle: acetone 101 % of control | endpoint: mean survival time, dose: 50.0 mg/kg/injection, schedule: Q01DX009 (ip), vehicle: acetone 97 % of control

CC(=O)Nc1ccc(/C=N/NC(=O)CNC(=O)Nc2ccc(Cl)c(Cl)c2)cc1
inactive: [7] 95 % of control | [8] 100 % of control | [9] 109 % of control

CCOP(=O)(OCC)c1ccccc1
inactive: endpoint: mean survival time, dose: 100.0 mg/kg/injection, schedule: Q04DX002 (ip), vehicle: saline 96 % of control | endpoint: mean survival time, dose: 200.0 mg/kg/injection, schedule: Q04DX002 (ip), vehicle: saline 96 % of control | endpoint: mean survival time, dose: 400.0 mg/kg/injection, schedule: Q04DX002 (ip), vehicle: saline 112 % of control

BrCN(CBr)c1ccc2c(c1)Cc1cc(Br)ccc1-2
inactive: [11] 100 % of control | [13] 101 % of control | [14] 103 % of control

CC(N)(CCO)C(=O)O (configuration not stated)
inactive: endpoint: mean survival time, dose: 100.0 mg/kg/injection, schedule: Q01DX009 (ip), vehicle: saline sonified 97 % of control | [4] 101 % of control | endpoint: mean survival time, dose: 200.0 mg/kg/injection, schedule: Q01DX009 (ip), vehicle: saline sonified 104 % of control | [5] 101 % of control | endpoint: mean survival time, dose: 400.0 mg/kg/injection, schedule: Q01DX009 (ip), vehicle: saline sonified 103 % of control | [6] 98 % of control

NC(=O)C(Cl)(Cl)Cl
inactive: [7] 107 % of control | [11] 103 % of control | [8] 104 % of control | [13] 99 % of control | [9] 103 % of control | [14] 99 % of control

COc1cc2cc[n+]3c(C)c4ccc(OC)c(OC)c4cc3c2cc1OC (tested in a mixture with another compound)
inactive: endpoint: mean survival time, dose: 5.0 mg/kg/injection, schedule: Q01DX009 (ip), vehicle: saline 108 % of control | endpoint: mean survival time, dose: 60.0 mg/kg/injection, schedule: Q01DX009 (ip), vehicle: saline 121 % of control

O=S(=O)(N(c1ccccc1)S(=O)(=O)C(F)(F)F)C(F)(F)F
inactive: endpoint: mean survival time, dose: 50.0 mg/kg/injection, schedule: Q01DX009 (ip), vehicle: Klucel (hydroxypropylcellulose) (HPC) 91 % of control | [10] 88 % of control | [12] 88 % of control

O=C1OCCN1S(=O)(=O)c1ccc(Cl)cc1
inactive: [7] 95 % of control | [4] 104 % of control | [8] 93 % of control | [5] 102 % of control | [9] 95 % of control | [6] 98 % of control

O=NN1CCOC1=NCCCl
inactive: endpoint: mean survival time, dose: 3.12 mg/kg/injection, schedule: Q01DX001 (ip), vehicle: water 100 % of control | endpoint: mean survival time, dose: 6.25 mg/kg/injection, schedule: Q01DX001 (ip), vehicle: water 96 % of control | endpoint: mean survival time, dose: 12.5 mg/kg/injection, schedule: Q01DX001 (ip), vehicle: water 94 % of control | endpoint: mean survival time, dose: 25.0 mg/kg/injection, schedule: Q01DX001 (ip), vehicle: water 96 % of control | endpoint: mean survival time, dose: 50.0 mg/kg/injection, schedule: Q01DX001 (ip), vehicle: water 96 % of control | endpoint: mean survival time, dose: 100.0 mg/kg/injection, schedule: Q01DX001 (ip), vehicle: water 102 % of control | endpoint: mean survival time, dose: 200.0 mg/kg/injection, schedule: Q01DX001 (ip), vehicle: water 122 % of control

CCOC(=O)C(C#N)CC (configuration not stated)
inactive: endpoint: mean survival time, dose: 100.0 mg/kg/injection, schedule: Q01DX001 (ip), vehicle: saline 98 % of control | endpoint: mean survival time, dose: 200.0 mg/kg/injection, schedule: Q01DX001 (ip), vehicle: saline 98 % of control | endpoint: mean survival time, dose: 400.0 mg/kg/injection, schedule: Q01DX001 (ip), vehicle: saline 107 % of control

c1cc2c(c(OCC3=NCCN3)c1)CCCC2
inactive: endpoint: mean survival time, dose: 25.0 mg/kg/injection, schedule: Q04DX002 (ip), vehicle: saline 94 % of control | endpoint: mean survival time, dose: 50.0 mg/kg/injection, schedule: Q04DX002 (ip), vehicle: saline 110 % of control

CCCCCCC[CH2][Sn]1([CH2]CCCCCCC)[O]C2C(CO)OC(n3ccc4c(N)ncnc43)C2[O]1 (configuration not stated)
inactive: endpoint: mean survival time, dose: 0.78 mg/kg/injection, schedule: Q01DX005 (ip), vehicle: other 110 % of control | endpoint: mean survival time, dose: 1.56 mg/kg/injection, schedule: Q01DX005 (ip), vehicle: other 107 % of control | endpoint: mean survival time, dose: 3.13 mg/kg/injection, schedule: Q01DX005 (ip), vehicle: other 115 % of control | endpoint: mean survival time, dose: 6.25 mg/kg/injection, schedule: Q01DX005 (ip), vehicle: other 102 % of control

COC(=O)Nc1cn2cc(C(=O)c3cccs3)ccc2n1
inactive: endpoint: median survival time, dose: 6.25 mg/kg/injection, schedule: Q01DX009 (ip), vehicle: Klucel (hydroxypropylcellulose) (HPC) 104 % of control | endpoint: median survival time, dose: 12.5 mg/kg/injection, schedule: Q01DX009 (ip), vehicle: Klucel (hydroxypropylcellulose) (HPC) 112 % of control | endpoint: median survival time, dose: 25.0 mg/kg/injection, schedule: Q01DX009 (ip), vehicle: Klucel (hydroxypropylcellulose) (HPC) 119 % of control | endpoint: median survival time, dose: 50.0 mg/kg/injection, schedule: Q01DX009 (ip), vehicle: Klucel (hydroxypropylcellulose) (HPC) 124 % of control

Nc1cc(Br)cc(Br)c1
inactive: [4] 94 % of control | [5] 105 % of control | [6] 94 % of control

COC(=O)C1=CCCN(C)C1
inactive: endpoint: mean survival time, dose: 12.5 mg/kg/injection, schedule: Q01DX009 (ip), vehicle: saline 98 % of control | endpoint: mean survival time, dose: 25.0 mg/kg/injection, schedule: Q01DX009 (ip), vehicle: saline 104 % of control | endpoint: mean survival time, dose: 50.0 mg/kg/injection, schedule: Q01DX009 (ip), vehicle: saline 98 % of control

CCC1(C#CCN2C(=O)c3ccccc3C2=O)C=CC2(CC1)OCCO2 (configuration not stated)
inactive: [1] 101 % of control | [2] 93 % of control | [3] 91 % of control

CCCC/C=C/COCC
inactive: endpoint: mean survival time, dose: 50.0 mg/kg/injection, schedule: Q01DX009 (ip), vehicle: saline with Tween-80 97 % of control | [7] 94 % of control | [8] 97 % of control
